According to PubChem BioAssay (NCI):
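Growth conditions: 96-well plates. Treatment: test compound, 48 hours, 5 concentrations. Analysis: linear interpolation between bracketing concentrations; unreached endpoints set to highest concentration. Here, GI50 denotes the concentration required for 50% inhibition of growth. TGI: concentration producing complete growth inhibition.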 *1 amine or outer side, *2 acyl side, *3 side chain or, on linkers, in order; H or OH if unused. Where a SMILES comes first, the peptide text is derived from it. Bridges are numbered along the chain shown (N, C = ends). Roman numbers before positions name the chains, in order. X23 = CCCCCCCCCCCCCCC(=O)NC(CCCCN[*:2])C(=O)CN1CCCC1C(=O)[*:1]

Tests used:
Experiment in all cases: NCI tumour cell line growth inhibition, 48 h
A498 renal = tested on: A498 renal
A549 NSCLC = tested on: A549 NSCLC
BT-549 breast = tested on: BT-549 breast
CAKI-1 renal = tested on: CAKI-1 renal
CCRF-CEM leukemia = tested on: CCRF-CEM leukemia
COLO 205 colon = tested on: COLO 205 colon
DU-145 prostate = tested on: DU-145 prostate
EKVX NSCLC = tested on: EKVX NSCLC
HCC-2998 colon = tested on: HCC-2998 colon
HCT-116 colon = tested on: HCT-116 colon
HL-60(TB) leukemia = tested on: HL-60(TB) leukemia
HOP-62 NSCLC = tested on: HOP-62 NSCLC
HOP-92 NSCLC = tested on: HOP-92 NSCLC
HS 578T breast = tested on: HS 578T breast
HT29 colon = tested on: HT29 colon
IGROV1 ovarian = tested on: IGROV1 ovarian
K-562 leukemia = tested on: K-562 leukemia
KM12 colon = tested on: KM12 colon
M14 melanoma = tested on: M14 melanoma
MCF7 breast = tested on: MCF7 breast
MDA-MB-231 breast = tested on: MDA-MB-231 breast
MDA-MB-435 = tested on: MDA-MB-435
MOLT-4 leukemia = tested on: MOLT-4 leukemia
NCI-H226 lung = tested on: NCI-H226 lung
NCI-H23 lung = tested on: NCI-H23 lung
NCI-H460 lung = tested on: NCI-H460 lung
NCI-H522 lung = tested on: NCI-H522 lung
NCI/ADR-RES ovarian = tested on: NCI/ADR-RES ovarian
OVCAR-3 ovarian = tested on: OVCAR-3 ovarian
OVCAR-4 ovarian = tested on: OVCAR-4 ovarian
OVCAR-5 ovarian = tested on: OVCAR-5 ovarian
OVCAR-8 ovarian = tested on: OVCAR-8 ovarian
RPMI-8226 leukemia = tested on: RPMI-8226 leukemia
RXF 393 renal = tested on: RXF 393 renal
SF-268 CNS = tested on: SF-268 CNS
SF-295 CNS = tested on: SF-295 CNS
SF-539 CNS = tested on: SF-539 CNS
SK-MEL-2 melanoma = tested on: SK-MEL-2 melanoma
SK-MEL-28 melanoma = tested on: SK-MEL-28 melanoma
SK-MEL-5 melanoma = tested on: SK-MEL-5 melanoma
SK-OV-3 ovarian = tested on: SK-OV-3 ovarian
SNB-19 CNS = tested on: SNB-19 CNS
SNB-75 CNS = tested on: SNB-75 CNS
SW-620 colon = tested on: SW-620 colon
T-47D breast = tested on: T-47D breast
TK-10 renal = tested on: TK-10 renal
UACC-257 melanoma = tested on: UACC-257 melanoma
UO-31 renal = tested on: UO-31 renal

## CCCCCCCCCCCCCCC(=O)NC(CCCCNC(=O)C1CCCN1C(=O)C(CCCCN)NC(=O)C(CCCCN)NC(=O)C(CCCCN)NC(=O)C(CCCNC(=N)N)NC(=O)C(CCCCN)NC(=O)C(N)C(C)C)C(=O)CN1CCCC1C(=O)NCC(=O)NC(Cc1ccccc1)C(=O)N1CCCC1C(=O)NC(CO)C(=O)NC(Cc1ccc(O)cc1)C(=O)NC(CCCCN)C(=O)NC(CC(C)C)C(=O)NC(CCCNC(=N)N)C(=O)N1CCCC1C(=O)NCC(N)=O (stereo unspecified) (I: GFPSYKLRPG-NH2 / II: H-VKRKKKP; linker I:N-II:C via X23; configuration not given here)
A498 renal
  GI50: 40.5 µM
  TGI: > 100 µM
A549 NSCLC
  GI50: 19.2 µM
  TGI: 43.1 µM
BT-549 breast
  GI50: 23.4 µM
  TGI: 54.7 µM
CAKI-1 renal
  GI50: 14 µM
  TGI: 36.9 µM
CCRF-CEM leukemia
  GI50: 16.5 µM
  TGI: 35.1 µM
COLO 205 colon
  GI50: 2.66 µM
  TGI: 15.6 µM
DU-145 prostate
  GI50: 24.6 µM
  TGI: 64.2 µM
EKVX NSCLC
  GI50: 20.3 µM
  TGI: 58.7 µM
HCC-2998 colon
  GI50: 2.34 µM
  TGI: 8.59 µM
HCT-116 colon
  GI50: 14.3 µM
  TGI: 33.1 µM
HL-60(TB) leukemia
  GI50: 22.5 µM
  TGI: 94.8 µM
HOP-62 NSCLC
  GI50: 27.8 µM
  TGI: 69.5 µM
HOP-92 NSCLC
  GI50: 27 µM
  TGI: 65.1 µM
HS 578T breast
  GI50: 41.1 µM
  TGI: > 100 µM
HT29 colon
  GI50: 24.7 µM
  TGI: 77.8 µM
IGROV1 ovarian
  GI50: 14.8 µM
  TGI: 52.4 µM
K-562 leukemia
  GI50: 9.27 µM
  TGI: 44.4 µM
KM12 colon
  GI50: 1.89 µM
  TGI: 3.85 µM
M14 melanoma
  GI50: 22.8 µM
  TGI: 55.6 µM
MCF7 breast
  GI50: 15.4 µM
  TGI: 45.7 µM
MDA-MB-231 breast
  GI50: 20.9 µM
  TGI: 43.7 µM
MDA-MB-435
  GI50: 3.15 µM
  TGI: 41.6 µM
MOLT-4 leukemia
  GI50: 18.7 µM
  TGI: 44 µM
NCI-H226 lung
  GI50: 23.7 µM
  TGI: 49.7 µM
NCI-H23 lung
  GI50: 23.8 µM
  TGI: 92.8 µM
NCI-H460 lung
  GI50: 14.6 µM
  TGI: 49.9 µM
NCI-H522 lung
  GI50: 21.8 µM
  TGI: 66.3 µM
NCI/ADR-RES ovarian
  GI50: 19.6 µM
  TGI: 52.9 µM
OVCAR-3 ovarian
  GI50: 18.7 µM
  TGI: 94.6 µM
OVCAR-4 ovarian
  GI50: 28.7 µM
  TGI: 97.1 µM
OVCAR-5 ovarian
  GI50: 29.7 µM
  TGI: 74.9 µM
OVCAR-8 ovarian
  GI50: 26.3 µM
  TGI: 85.8 µM
RPMI-8226 leukemia
  GI50: 11 µM
  TGI: 30 µM
RXF 393 renal
  GI50: 20.7 µM
  TGI: 51.1 µM
SF-268 CNS
  GI50: 14.6 µM
  TGI: 40.8 µM
SF-295 CNS
  GI50: 18.1 µM
  TGI: 59.3 µM
SF-539 CNS
  GI50: 27.7 µM
  TGI: 75.1 µM
SK-MEL-2 melanoma
  GI50: 51.7 µM
  TGI: > 100 µM
SK-MEL-28 melanoma
  GI50: 11.3 µM
  TGI: 98.6 µM
SK-MEL-5 melanoma
  GI50: 8.01 µM
  TGI: > 100 µM
SK-OV-3 ovarian
  GI50: 15.9 µM
  TGI: 44.3 µM
SNB-19 CNS
  GI50: 31.4 µM
  TGI: 76.6 µM
SNB-75 CNS
  GI50: 31.5 µM
  TGI: 76.7 µM
SW-620 colon
  GI50: 30 µM
  TGI: > 100 µM
T-47D breast
  GI50: 3.17 µM
  TGI: 13.9 µM
TK-10 renal
  GI50: 0.704 µM
  TGI: 13.7 µM
UACC-257 melanoma
  GI50: 14 µM
  TGI: 53.8 µM
UO-31 renal
  GI50: 24.7 µM
  TGI: 77.1 µM
